The values that follow come from patent US10556883B2, “Benzenesulfonamide compounds, method for synthesizing same, and use thereof in medicine and cosmetics” (GALDERMA RESEARCH & DEVELOPMENT, priority 2016, dated 2020).

This assay relates to TNFα secretion from LPS stimulated frozen Peripheral Blood Mononuclear Cells (PBMC). Put plainly: inhibition of TNFα secretion from LPS stimulated human PBMC (hPBMC assay). Conditions: LPS 1 μg/mL, overnight incubation, TNFα by HTRF. Type of assay: cell-based. Here is the method: Activity of the compounds was investigated using human peripheral blood mononuclear cells (hPBMC). This assay was designed to measure the inhibition of the TNFα secretion from LPS stimulated frozen Peripheral Blood Mononuclear Cells (PBMC) isolated from human blood. TNFα levels were measured using HTRF® Human TNFα kit (Cisbio #62TNFPEC) which is a rapid and quantitative sandwich immunoassay based on TR-FRET technology.
Frozen PBMC were quickly thawed, resuspended in culture medium (RPMI 10% inactivated FBS) and viable cells were seeded in 96-well plates (50,000 cells/well). […] After overnight incubation at 37° C., 10 μL of cell supernatant were mixed with 5 μL of each tagged anti-TNFα specific antibody as recommended by the supplier. After 2 hours of incubation at room temperature, the HTRF® signals were measured using a microplate reader (wavelengths: excitation=337 nm, first emission=620 nm, second emission=665 nm).
A general note: Time-resolved FRET reads energy transfer from a long-lived donor to a nearby acceptor.
In turn, `C=CCOC(=O)N1CC(CC(=O)NO)(NS(=O)(=O)c2ccc(OCc3cc(C)nc4ccccc34)cc2)C1` [Example 5c, allyl 3-(2-(hydroxyamino)-2-oxoethyl)-3-((4-((2-methylquinolin-4-yl)methoxy)phenyl)sulfonamido)azetidine-1-carboxylate] gave an IC50 of less than 50 nM.

`CC(=O)N1CC(CC(=O)NO)(NS(=O)(=O)c2ccc(OCc3cc(C)nc4c(F)cccc34)cc2)C1` [Example 6, 2-(1-acetyl-3-((4-((8-fluoro-2-methylquinolin-4-yl)methoxy)phenyl)sulfonamido)azetidin-3-yl)-N-hydroxyacetamide] gave an IC50 of 50 to 100 nM.

For the molecule `CCCC(=O)N1CC(NS(=O)(=O)c2ccc(OCc3cc(C)nc4ccccc34)cc2)(C(=O)NO)C1` [Example 7h, 1-butyryl-N-hydroxy-3-((4-((2-methylquinolin-4-yl)methoxy)phenyl)sulfonamido)azetidine-3-carboxamide], the IC50 is less than 50 nM.

The molecule `CCC(CC)C(=O)N1CC(NS(=O)(=O)c2ccc(OCc3cc(C)nc4ccccc34)cc2)(C(=O)NO)C1` [Example 7f, 1-(2-ethylbutanoyl)-N-hydroxy-3-((4-((2-methylquinolin-4-yl)methoxy)phenyl)sulfonamido)azetidine-3-carboxamide] came in with an IC50 of 50 to 100 nM.

For `CCCCC(=O)N1CC(NS(=O)(=O)c2ccc(OCc3cc(C)nc4ccccc34)cc2)(C(=O)NO)C1` [Example 7i, N-hydroxy-3-((4-((2-methylquinolin-4-yl)methoxy)phenyl)sulfonamido)-1-pentanoylazetidine-3-carboxamide], the half-maximal inhibitory concentration (IC50) is less than 50 nM.

The molecule `Cc1cc(COc2ccc(S(=O)(=O)N(C)C3(C(=O)NO)CN(C(=O)C(C)C)C3)cc2)c2ccccc2n1` [Example 19a, N-hydroxy-1-isobutyryl-3-((N-methyl-4-((2-methylquinolin-4-yl)methoxy)phenyl)sulfonamido)azetidine-3-carboxamide] had a half-maximal inhibitory concentration (IC50) of less than 50 nM.

Take `CC[C@H](C)C(=O)N1CC(NS(=O)(=O)c2ccc(OCc3cc(C)nc4ccccc34)cc2)(C(=O)NO)C1` [Example 26d, (S)-N-hydroxy-1-(2-methylbutanoyl)-3-((4-((2-methylquinolin-4-yl)methoxy)phenyl)sulfonamido)azetidine-3-carboxamide]: the IC50 is less than 50 nM.

Turning to `Cc1cc(COc2ccc(S(=O)(=O)NC3(C(=O)NO)CN(C(=O)CC(C)(C)C)C3)cc2)c2ccccc2n1` [Example 15, 1-(3,3-dimethylbutanoyl)-N-hydroxy-3-((4-((2-methylquinolin-4-yl)methoxy)phenyl)sulfonamido)azetidine-3-carboxamide], the IC50 lay in the range of 50 to 100 nM.

Take `CCC(=O)N1CC(NS(=O)(=O)c2ccc(OCc3cc(C)nc4ccccc34)cc2)(C(=O)NO)C1` [Example 7g, N-hydroxy-3-((4-((2-methylquinolin-4-yl)methoxy)phenyl)sulfonamido)-1-propionylazetidine-3-carboxamide]: the IC50 was less than 50 nM.

In turn, `Cc1cc(COc2ccc(S(=O)(=O)NC3(C(=O)NO)CN(C(=O)C4CCC4)C3)cc2)c2ccccc2n1` [Example 7e, 1-(cyclobutanecarbonyl)-N-hydroxy-3-((4-((2-methylquinolin-4-yl)methoxy)phenyl)sulfonamido)azetidine-3-carboxamide] gave a half-inhibitory concentration (IC50) of less than 50 nM.

Consider `Cc1cc(COc2ccc(S(=O)(=O)N(C(C)C)C3(C(=O)NO)CN(C(=O)C(C)C)C3)cc2)c2ccccc2n1` [Example 23, N-hydroxy-1-isobutyryl-3-((N-isopropyl-4-((2-methylquinolin-4-yl)methoxy)phenyl)sulfonamido)azetidine-3-carboxamide], for which the IC50 was 500 to 1000 nM.

Take `CC(=O)N1CC(CC(=O)NO)(NS(=O)(=O)c2ccc(OCc3cc(C)nc4ccccc34)cc2)C1` [Example 1, 2-(1-acetyl-3-((4-((2-methylquinolin-4-yl)methoxy)phenyl)sulfonamido)azetidin-3-yl)-N-hydroxyacetamide]: the half-maximal inhibitory concentration (IC50) is less than 50 nM.

Take `CC(=O)N1CC(CC(=O)NO)(NS(=O)(=O)c2ccc(OCc3cc(C)nc4c(C)cccc34)cc2)C1` [Example 24, 2-(1-acetyl-3-((4-((2,8-dimethylquinolin-4-yl)methoxy)phenyl)sulfonamido)azetidin-3-yl)-N-hydroxyacetamide]: the IC50 was less than 50 nM.

`CCC(CC)C(=O)N1CC(CC(=O)NO)(NS(=O)(=O)c2ccc(OCc3cc(C)nc4ccccc34)cc2)C1` [Example 4i, 2-(1-(2-ethylbutanoyl)-3-((4-((2-methylquinolin-4-yl)methoxy)phenyl)sulfonamido)azetidin-3-yl)-N-hydroxyacetamide] had a half-maximal inhibitory concentration (IC50) of less than 50 nM.

`Cc1cc(COc2ccc(S(=O)(=O)NC3(C(=O)NO)CN(C(=O)C(C)C)C3)cc2)c2cccc(C)c2n1` [Example 27, 3-((4-((2,8-dimethylquinolin-4-yl)methoxy)phenyl)sulfonamido)-N-hydroxy-1-isobutyrylazetidine-3-carboxamide] displayed an IC50 of 100 to 500 nM.

Take `Cc1cc(COc2ccc(S(=O)(=O)NC3(C(=O)NO)CN(C(=O)N4CCOCC4)C3)cc2)c2ccccc2n1` [Example 16b, N-hydroxy-3-((4-((2-methylquinolin-4-yl)methoxy)phenyl)sulfonamido)-1-(morpholine-4-carbonyl)azetidine-3-carboxamide]: the half-maximal inhibitory concentration (IC50) was less than 50 nM.

As for `Cc1cc(COc2ccc(S(=O)(=O)NC3(C(=O)NO)CN(C(=O)OC(C)(C)C)C3)cc2)c2ccccc2n1` [Example 14, Tert-butyl 3-(hydroxycarbamoyl)-3-((4-((2-methylquinolin-4-yl)methoxy)phenyl)sulfonamido)azetidine-1-carboxylate], the IC50 was less than 50 nM.

Take `CC(=O)N1CC(CC(=O)NO)(N(C)S(=O)(=O)c2ccc(OCc3cc(C)nc4ccccc34)cc2)C1` [Example 3, 2-(1-acetyl-3-((N-methyl-4-((2-methylquinolin-4-yl)methoxy)phenyl)sulfonamido)azetidin-3-yl)-N-hydroxyacetamide]: the half-maximal inhibitory concentration (IC50) fell in the range of 500 to 1000 nM.

For `Cc1cc(COc2ccc(S(=O)(=O)NC3(C(=O)NO)CN(C(=O)CC4CC4)C3)cc2)c2ccccc2n1` [Example 26c, 1-(2-cyclopropylacetyl)-N-hydroxy-3-((4-((2-methylquinolin-4-yl)methoxy)phenyl)sulfonamido)azetidine-3-carboxamide], the IC50 is less than 50 nM.

In turn, `CCOC(=O)N1CC(CC(=O)NO)(NS(=O)(=O)c2ccc(OCc3cc(C)nc4ccccc34)cc2)C1` [Example 5a, Ethyl 3-(2-(hydroxyamino)-2-oxoethyl)-3-((4-((2-methylquinolin-4-yl)methoxy)phenyl)sulfonamido)azetidine-1-carboxylate] came in with an IC50 of less than 50 nM.

Molecule `Cc1cc(COc2ccc(S(=O)(=O)NC3(CC(=O)NO)CN(C(=O)OC(C)(C)C)C3)cc2)c2ccccc2n1` [Example 2, Tert-butyl 3-(2-(hydroxyamino)-2-oxoethyl)-3-((4-((2-methylquinolin-4-yl)methoxy)phenyl)sulfonamido)azetidine-1-carboxylate] returned an IC50 of less than 50 nM.

In the case of `COC(=O)N1CC(CC(=O)NO)(NS(=O)(=O)c2ccc(OCc3cc(C)nc4ccccc34)cc2)C1` [Example 5b, methyl 3-(2-(hydroxyamino)-2-oxoethyl)-3-((4-((2-methylquinolin-4-yl)methoxy)phenyl)sulfonamido)azetidine-1-carboxylate], the concentration for half-maximal inhibition (IC50) is less than 50 nM.

The molecule `Cc1cc(COc2ccc(S(=O)(=O)NC3(C(=O)NO)CN(C(=O)C(C)(C)C)C3)cc2)c2ccccc2n1` [Example 7a, N-hydroxy-3-((4-((2-methylquinolin-4-yl)methoxy)phenyl)sulfonamido)-1-pivaloylazetidine-3-carboxamide] returned a half-maximal inhibitory concentration (IC50) of 50 to 100 nM.

With `Cc1cc(COc2ccc(S(=O)(=O)NC3(C(=O)NO)CN(C(=O)N4CCN(C)CC4)C3)cc2)c2ccccc2n1` [Example 16c, N-hydroxy-1-(4-methylpiperazine-1-carbonyl)-3-((4-((2-methylquinolin-4-yl)methoxy)phenyl)sulfonamido)azetidine-3-carboxamide], the half-maximal inhibitory concentration (IC50) is less than 50 nM.

`Cc1cc(COc2ccc(S(=O)(=O)NC3(CC(=O)NO)CN(C(=O)N4CCOCC4)C3)cc2)c2ccccc2n1` [Example 25, N-hydroxy-2-(3-((4-((2-methylquinolin-4-yl)methoxy)phenyl)sulfonamido)-1-(morpholine-4-carbonyl)azetidin-3-yl)acetamide] returned a concentration for half-maximal inhibition (IC50) of less than 50 nM.

Molecule `COCCN(C1(C(=O)NO)CN(C(=O)C(C)C)C1)S(=O)(=O)c1ccc(OCc2cc(C)nc3ccccc23)cc1` [Example 22, N-hydroxy-1-isobutyryl-3-((N-(2-methoxyethyl)-4-((2-methylquinolin-4-yl)methoxy)phenyl)sulfonamido)azetidine-3-carboxamide] came in with an IC50 of less than 50 nM.

`Cc1cc(COc2ccc(S(=O)(=O)NC3(CC(=O)NO)CN(C(=O)CC(C)C)C3)cc2)c2ccccc2n1` [Example 4a, N-hydroxy-2-(1-(3-methylbutanoyl)-3-((4-((2-methylquinolin-4-yl)methoxy)phenyl)sulfonamido)azetidin-3-yl)acetamide]: the half-inhibitory concentration (IC50) was less than 50 nM.

`CC(=O)N1CC(NS(=O)(=O)c2ccc(OCc3cc(C)nc4ccccc34)cc2)(C(=O)NO)C1` [Example 8, 1-acetyl-N-hydroxy-3-((4-((2-methylquinolin-4-yl)methoxy)phenyl)sulfonamido) azetidine-3-carboxamide] had a 50% inhibitory concentration (IC50) of less than 50 nM.

On to `Cc1cc(COc2ccc(S(=O)(=O)N(C)C3(C(=O)NO)CN(C(=O)CC(C)C)C3)cc2)c2ccccc2n1` [Example 19d, N-hydroxy-3-((N-methyl-4-((2-methylquinolin-4-yl)methoxy)phenyl)sulfonamido)-1-(3-methylbutanoyl)azetidine-3-carboxamide], for which the IC50 was less than 50 nM.

As a reminder, the IC50 is the concentration needed to halve the response being measured. A low value points to higher potency.
